According to paper PMC6631119, “Nasal Administration and Plasma Pharmacokinetics of Parathyroid Hormone Peptide PTH 1-34 for the Treatment of Osteoporosis” (Pharmaceutics, 2019):
Read-outs that look alike come from different tables or passages of the source.

Assays:
[1] = HPLC integrity of spray dried PTH 1-34; format: physicochemical; conditions: spray dried dry powder formulations during formulation development, inlet 85 °C
Experimental: The dry powder formulation was also prepared at CPL as 1% w/w PTH (1-34) with 39% Gellan gum, 40% Solutol® HS15, 20% Trehalose. In brief, 97.5 mg Gellan gum was dissolved in 50 mL ultra-pure water overnight. Solutol® HS15 was rendered molten (60 ± 10 °C), and 100 mg was added to the Gellan gum solution and mixed for 30–45 min at 60 °C. 50 mg of trehalose was added and mixed for a further 10 min. A total 5 mg of PTH 1-34 was dissolved in 5 mL of ultra-pure water, and 2.5 mL was added to the formulation. Particles were prepared using a spray dryer Mini Spray Dryer B-290 (Buchi UK Ltd., Oldham, UK) with the inlet set at 85 °C (outlet modified by inlet temperature), the aspirator 100%, the pump set at 006 equivalent to 2 mL/ min, the spray pressure at 4 bar. Particle size of the dry powder formulation manufactured for use in the sheep was not measured, due to limited availability of material due to batch size. However, the particle size of similar formulations when prepared for loading into the delivery devices was monitored using Helos/BF (Sympatec GmbH, Clausthal-Zellerfeld, Germany) during formulation development, where the VMD was 73.7–91.8 µm (×10 = 10.6–23.7 µm, ×50 = 51.5–98.1 µm, ×90 = 142–153 µm). A total 2.4–2.8% of particles were below 10 µm. As the vast majority of particles were >10 µm, the formulations would be expected to be nasally deposited.

[2] = cited from earlier work
Description: Nasal delivery of large peptides such as parathyroid 1-34 (PTH 1-34) can benefit from a permeation enhancer to promote absorption across the nasal mucosa into the bloodstream. […] We report here the plasma pharmacokinetics of PTH 1-34 in healthy human volunteers receiving the liquid nasal spray formulation containing Solutol® HS15 ... || Our previously published preclinical data in rats for a liquid nasal spray formation were encouraging, showing that the nasal systemic absorption of PTH 1-34 was increased considerably when administered in a formulation containing Solutol® HS15. […] This was not consistent with the previous data from our small animal preclinical studies. In the preceding preclinical conscious rat model, we reported the pharmacokinetic performance of an […] PTH 1-34 subcutaneous formulation, an intranasal liquid formulation with no enhancer and an intranasal solution containing Solutol® HS15. PTH 1-34 doses of 80 μg/kg by subcutaneous injection and 100 μg/kg intranasally were given to rats. T ...

[3] = post-menopausal women with osteoporosis, 20 μg PTH 1-34 subcutaneous dose, reported by the manufacturers of the commercial formulation; cited from earlier work
[4] = Healthy human volunteer plasma pharmacokinetics of PTH 1-34 (open cross-over, ELISA); format: in vivo
Experimental: An open cross-over clinical IMP (investigative medicinal product) study was conducted in seven healthy female subjects aged over 55 years (mean age 67.7, range 58 to 81 years). Each participant provided informed consent in accordance with ethical committee requirements and good clinical practice. Pre-study screening assessments were carried out within 21 days of the participants receiving their first dose (Supplementary Materials: Section S1). Inclusion and exclusion criteria were applied (Supplementary Materials: Section S2). Participants were admitted to the study centre on the morning of dosing, having abstained from alcohol and smoking for at least 24 h previously and fasted from midnight. Participants were given a light meal on arrival. A cannula was then positioned in the participant’s arm or hand to facilitate the collection of blood samples. The pre-dose sample was taken. Participants received a single subcutaneous injection of 20 μg teriparatide into the abdomen at their first trial visit. Following a seven day wash out period, each participant self-administered 90 μg PTH 1-34 from the nasal spray formulation using the Rexam SP270 nasal spray device; the patients had previously been trained in operation of the Rexam device. Any episodes of sneezing after administration of the nasal formulation were recorded. The nasal spray formulation contained Tc-99m-DTPA, 3–5 MBq per Rexam SP270 nasal spray dose, resulting in an effective radiation dose of less than 0.14 mSv to each participant.
Following either subcutaneous or intranasal dosing, 10 mL blood samples (Becton Dickinson sodium heparin) were taken at 5, 15, 30, 60 120, 180, 240, 300 and 360 min. After each sample was taken, the cannula was flushed with 10 mL 0.9% saline. Blood was stored on ice and centrifuged within 30 min to prepare plasma (4 °C, 1100–1300 g, 10 min). These samples were stored at −20 °C before dispatching to Simbec Research Ltd. (Merthyr Tydfil, UK) for quantification by validated ELISA, in compliance with The UK Good Laboratory Practice Regulations 1999 (Statutory Instrument No. 310 6) and subsequent amendment, OECD Principles of Good Laboratory Practice (Paris 1998) and EC Commission Directive 2004/10/EC of February 2004.
Pharmacokinetic data were analysed using Phoenix® WinNonlin® 5.1 (Certara USA, Inc., Princeton, NJ, USA) from quantified PTH 1-34 in the plasma, using recorded sampling times. Summary statistics (mean, median, SD, coefficient of variation [CV%], minimum, maximum, n) and the following plasma pharmacokinetic parameters were calculated: • Cmax • Tmax • Terminal half-life (t1/2) • AUC to 2 h (AUC0–2h) • AUC to last measured time point (AUClast) and corresponding Frel for nasal formulation

[5] = conscious rat, intranasal liquid formulation without enhancer, 100 μg/kg
[6] = healthy female volunteers aged over 55 y, single 20 μg teriparatide subcutaneous injection into abdomen (Forsteo pen), plasma ELISA, mean of n = 7

CC[C@H](C)[C@H](NC(=O)[C@H](CCC(=O)O)NC(=O)[C@H](CO)NC(=O)[C@@H](NC(=O)[C@@H](N)CO)C(C)C)C(=O)N[C@@H](CCC(N)=O)C(=O)N[C@@H](CC(C)C)C(=O)N[C@@H](CCSC)C(=O)N[C@@H](Cc1cnc[nH]1)C(=O)N[C@@H](CC(N)=O)C(=O)N[C@@H](CC(C)C)C(=O)NCC(=O)N[C@@H](CCCCN)C(=O)N[C@@H](Cc1cnc[nH]1)C(=O)N[C@@H](CC(C)C)C(=O)N[C@@H](CC(N)=O)C(=O)N[C@@H](CO)C(=O)N[C@@H](CCSC)C(=O)N[C@@H](CCC(=O)O)C(=O)N[C@@H](CCCN=C(N)N)C(=O)N[C@H](C(=O)N[C@@H](CCC(=O)O)C(=O)N[C@@H](Cc1c[nH]c2ccccc12)C(=O)N[C@@H](CC(C)C)C(=O)N[C@@H](CCCN=C(N)N)C(=O)N[C@@H](CCCCN)C(=O)N[C@@H](CCCCN)C(=O)N[C@@H](CC(C)C)C(=O)N[C@@H](CCC(N)=O)C(=O)N[C@@H](CC(=O)O)C(=O)N[C@H](C(=O)N[C@@H](Cc1cnc[nH]1)C(=O)N[C@@H](CC(N)=O)C(=O)N[C@@H](Cc1ccccc1)C(=O)O)C(C)C)C(C)C [PTH 1-34, PTH 1-34 acetate]
integrity of the spray dried PTH 1-34: purity by HPLC [1]: > 82.5% | relative bioavailability ([2]; conscious rat, intranasal liquid formulation without enhancer (100 μg/kg) relative to subcutaneous injection (80 μg/kg)): 8% | Cmax [2, 5]: 2 ng/mL | Tmax [2, 5]: 13 min | Tmax ([2]; conscious rat, intranasal solution containing Solutol HS15, 100 μg/kg): ~10 min | relative bioavailability ([2]; rat, intranasal liquid formulation containing Solutol HS15 (100 μg/kg) relative to subcutaneous injection (80 μg/kg)): 78% | Cmax ([2]; rat, subcutaneous injection, 80 μg/kg PTH 1-34, mean): 14.8 ng/mL | Cmax [3]: ~0.15 ng/mL | elimination half-life [3]: approximately 1 h | F rel ([4]; female, plasma, inhaled or intranasal, 90 ug, human, 90 μg intranasal vs 20 μg subcutaneous, all seven subjects included in the calculation, read-out: bioavailability after intranasal dosing compared to subcutaneous injection of Forsteo): 0.26% | Cmax [4, 6]: 0.253 ng/mL | t½ [4, 6]: 65 min | bioavailability after intranasal dosing compared to subcutaneous injection of Forsteo ([4]; human, 90 μg intranasal vs 20 μg subcutaneous, only the subjects with measurable plasma concentrations): approximately 1% | Tmax ([4]; human, inhaled or intranasal, 90 ug, healthy female volunteers aged over 55 y, single 90 μg PTH 1-34 intranasal liquid spray with 7.5% w/v Solutol HS15 (Rexam SP270), plasma ELISA, mean of n = 7, not detectable in 5 of 7): 9 min | Cmax ([4]; human, inhaled or intranasal, 90 ug, healthy female volunteers aged over 55 y, single 90 μg PTH 1-34 intranasal liquid spray with 7.5% w/v Solutol HS15 (Rexam SP270), plasma ELISA, mean of n = 7, not detectable in 5 of 7, read-out: Cmax): 0.005 ng/mL
